The target in the experiment is T1, Serine/threonine-protein kinase Chk1 (Homo sapiens, UniProt O14757).
T1 sequence (O14757 whole entry): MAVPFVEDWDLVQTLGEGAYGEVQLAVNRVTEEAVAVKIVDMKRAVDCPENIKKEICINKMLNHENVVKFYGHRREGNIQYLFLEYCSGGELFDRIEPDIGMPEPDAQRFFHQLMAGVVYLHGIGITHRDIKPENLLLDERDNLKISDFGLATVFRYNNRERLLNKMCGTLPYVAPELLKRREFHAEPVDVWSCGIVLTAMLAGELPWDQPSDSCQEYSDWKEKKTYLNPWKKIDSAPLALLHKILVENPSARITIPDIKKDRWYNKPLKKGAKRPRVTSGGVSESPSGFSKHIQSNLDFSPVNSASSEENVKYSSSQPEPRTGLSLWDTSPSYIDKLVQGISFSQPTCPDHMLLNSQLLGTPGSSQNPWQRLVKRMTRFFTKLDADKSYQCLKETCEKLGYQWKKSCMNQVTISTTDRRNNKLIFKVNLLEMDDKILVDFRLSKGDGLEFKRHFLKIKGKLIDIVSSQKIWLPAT
Description: Competitive inhibition of human CHK1 using ATP as substrate by DELFIA
The term IC50 denotes the point on the concentration scale where inhibition reaches its midpoint. Consider `N#Cc1cccc(-c2c[nH]c3ncnc(N4CCOC(CN)C4)c23)c1` (configuration not stated), for which the IC50 came out at 3.2 µM. To `NCCCNc1ncnc2[nH]c3cnccc3c12` belongs 1.7 µM. `NC1CCN(c2ncnc3[nH]c4cnccc4c23)CC1` yielded an IC50 of 0.67 µM. Take `NCC1CCN(c2ncnc3[nH]c4cnccc4c23)CC1`: the IC50 came out at 0.29 µM. Regarding `c1cncc(Nc2cc(NCC3CCNCC3)ncn2)c1`, the IC50 stood at 122 µM. This IC50 is about 420-fold higher than that of the molecule before.

The molecule `NCC1CCN(c2cc(Nc3cnccn3)ncn2)CC1` gave an IC50 of 22 µM.

`N#Cc1cnc(Nc2cc(NCC3CCOCC3)ncn2)cn1` gave an IC50 of 20 µM.

The values are drawn from ChEMBL document CHEMBL1926634, “Structure-guided evolution of potent and selective CHK1 inhibitors through scaffold morphing” (J Med Chem, 2011).
